{"source": "patent US20240247235A1", "about": "“niPSCs DERIVED FROM SOMATIC CELLS” (UNIVERSITA' DEGLI STUDI DI PADOVA, priority 2018, published 2024)", "key": {"Human fibroblasts": {"system": "Human fibroblasts", "assay": "mmRNA (OSKMN) reprogramming of fibroblasts to naïve-like iPSC colonies in microfluidics", "format": "cell-based", "procedure": "Microfluidic channels were coated with 25 μg/ml fibronectin (Sigma Aldrich) for 30 min at room temperature. Somatic cells were seeded on day −1 of reprogramming at 25 cells/mm^2 for feeder-free reprogramming in DMEM/10% FBS. Such seeding density allowed robust proliferation and survival of somatic cells during reprogramming. On day 0, 2 hours before the first mmRNA transfection, the medium was changed to PRM, a medium optimized from mRNA transfection and previously used for derivation of primed PSCs (StemMACS ReproBREW XF, Miltenyi biotec). When indicated, 1 μM CH, 1 μM CH and 5 μM Ri were added to PRM. Transfection period is of 9 h. Cells were transfected daily at 9 am, and fresh PRM was given daily at 6 pm. On day 6, medium was changed with a naïve supporting medium according to table 1 and the same regime of transfection and fresh medium change was maintained until day 12. From day 0 to 12, media were supplemented with 200 ng/mL^−1 B18R (eBioscience). Transfections using a OSKMN+nGFP mmRNA mix (POU5F1, SOX2, KLF4, c-MYC, NANOG, nuclear GFP) were started on day 0 and daily repeated for 12 d. […]\nFreshly-derived colonies were then cultured for 3 days without mmRNAs (day 15) to allow their complete clearance, and analyzed in situ for naïve or primed associated markers. […] Success rate, measured as the percentage of microfluidic channels containing naïve-like colonies, was evaluated (FIG. 3c). […]"}, "primed iPS cells": {"system": "primed iPS cells", "assay": "Expansion of mixed primed- and naïve-like colonies generated in CCC with FGF receptor inhibitor", "format": "cell-based, human", "conditions": "expanded with inhibitor", "procedure": "Side-by-side experiments comparing μF and CCC were performed. Generation of niPSCs in μF was robust (100% of channels contained colonies, with an efficiency of 3.7%+1.0 and 3.1%+0.4 from BJ and HFF-1, respectively, FIG. 9a). Conversely, in CCC only 25% of wells contained naïve-like colonies, with efficiency of 0.2% and 0.04%."}}, "data": [{"smiles": "Cc1c[nH]c(-c2cnc(NCCNc3ccc(C#N)cn3)nc2-c2ccc(Cl)cc2Cl)n1", "note": "[CH, CHIR99021]", "values": [{"measurement": "Formed naïve-like colonies, inhibitor added to PRM during the first 6 days", "setting": "Human fibroblasts; PRM + 1 μM CHIR99021 days 0-6, then 2LiGo+KSR, compared with other inhibitor combinations (FIG. 3b)", "value": "Best results in term of formed colonies"}]}, {"smiles": "CCN(CC)CCCCNc1ncc2cc(-c3cc(OC)cc(OC)c3)c(NC(=O)NC(C)(C)C)nc2n1", "note": "[PD173074]", "values": [{"measurement": "Effect on primed iPS cells in mixed primed/naïve culture", "setting": "primed iPS cells", "value": "primed iPS cells were eliminated"}]}, {"smiles": "C[C@@H](N)[C@H]1CC[C@H](C(=O)Nc2ccncc2)CC1", "note": "[ROCK inhibitor, Y27632]", "values": [{"measurement": "Effect on colony formation efficiency", "setting": "Human fibroblasts; added to reprogramming in 2iLGo+KSR, OSKMN mmRNA, microfluidics (FIG. 3c-e)", "value": "increased colony formation efficiency"}]}]}
